# Measured values as given in ChEMBL document CHEMBL1201862, “PubChem BioAssay data set” (2004).
# Calls of active or inactive are those of the source.
# Tests used:
# Paired box protein Pax-8 = Paired box protein Pax-8 (Homo sapiens, UniProt Q06710); test: PAX8 transcriptional activity inhibition in RMG-I – RMG-I cells, luciferase, cherry-pick, dose response (AID 687027); type: functional, cell-based;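 further: luciferase reporter driven by Pax8 target thyroperoxidase promoter measured by SteadyGlo luminescence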
# Sequence of Paired box protein Pax-8 (Q06710 whole entry): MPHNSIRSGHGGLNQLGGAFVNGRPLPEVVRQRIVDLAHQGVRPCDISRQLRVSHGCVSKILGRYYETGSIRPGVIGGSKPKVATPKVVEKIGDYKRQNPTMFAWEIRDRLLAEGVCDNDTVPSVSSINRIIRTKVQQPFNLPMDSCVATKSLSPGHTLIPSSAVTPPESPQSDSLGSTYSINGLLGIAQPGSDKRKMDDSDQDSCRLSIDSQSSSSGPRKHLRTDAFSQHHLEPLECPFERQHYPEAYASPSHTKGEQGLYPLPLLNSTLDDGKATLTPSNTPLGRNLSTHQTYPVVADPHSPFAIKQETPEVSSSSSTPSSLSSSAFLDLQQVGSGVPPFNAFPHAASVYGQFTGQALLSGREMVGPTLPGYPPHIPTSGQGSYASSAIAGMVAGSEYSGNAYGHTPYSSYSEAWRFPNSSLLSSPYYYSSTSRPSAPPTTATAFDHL
# [1] = inhibitors acting on PAX2 in cells – cell-based, plate reader, dry powder samples, selectivity assay for PAX8 inhibitor project, dose response (AID 743048); type: functional;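 further: HEK293 cells carrying a WT1 promoter luciferase reporter driven by expressed Pax2; potency is for inhibition of Pax2 driven reporter signal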
# [2] = COV362 cell viability loss – plate reader, dry powder, SA12, cytotoxicity control for PAX8 inhibitor project, dose response (AID 743144); type: functional, cell-based
# [3] = PAX5 cellular inhibition readout – cell-based, plate reader, dry powder samples, selectivity assay for PAX8 inhibitor project, dose response (AID 743047); type: functional;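 further: HEK293 cells carrying a Pax5 driven CD19 promoter luciferase reporter; potency of inhibitors that lower reporter luminescence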
# [4] = IGROV1 cell killing – plate reader, dry powder samples, PAX8 inhibitor project, dose response (AID 743043); type: functional, cell-based; conditions: IGROV-1
# [5] = OVCAR4 cell viability loss – plate reader, dry powder, SA11, cytotoxicity control for PAX8 inhibitor project, dose response (AID 743150); type: functional, cell-based; conditions: OVCAR-4
# [6] = COV434 cell viability loss – plate reader, dry powder, SA7, cytotoxicity control for PAX8 inhibitor project, dose response (AID 743145); type: functional, cell-based
# [7] = OV-90 cell viability loss – plate reader, dry powder, SA8, PAX8 inhibitor project, dose response (AID 743149); type: functional, cell-based
# [8] = PAX8-dependent cell viability loss – plate reader, dry powder, dose response (AID 743049); type: functional, cell-based
# Protein skinhead-1 = target: T1, Protein skinhead-1 (Caenorhabditis elegans, UniProt P34707); type: functional
# T1 sequence (P34707 whole entry): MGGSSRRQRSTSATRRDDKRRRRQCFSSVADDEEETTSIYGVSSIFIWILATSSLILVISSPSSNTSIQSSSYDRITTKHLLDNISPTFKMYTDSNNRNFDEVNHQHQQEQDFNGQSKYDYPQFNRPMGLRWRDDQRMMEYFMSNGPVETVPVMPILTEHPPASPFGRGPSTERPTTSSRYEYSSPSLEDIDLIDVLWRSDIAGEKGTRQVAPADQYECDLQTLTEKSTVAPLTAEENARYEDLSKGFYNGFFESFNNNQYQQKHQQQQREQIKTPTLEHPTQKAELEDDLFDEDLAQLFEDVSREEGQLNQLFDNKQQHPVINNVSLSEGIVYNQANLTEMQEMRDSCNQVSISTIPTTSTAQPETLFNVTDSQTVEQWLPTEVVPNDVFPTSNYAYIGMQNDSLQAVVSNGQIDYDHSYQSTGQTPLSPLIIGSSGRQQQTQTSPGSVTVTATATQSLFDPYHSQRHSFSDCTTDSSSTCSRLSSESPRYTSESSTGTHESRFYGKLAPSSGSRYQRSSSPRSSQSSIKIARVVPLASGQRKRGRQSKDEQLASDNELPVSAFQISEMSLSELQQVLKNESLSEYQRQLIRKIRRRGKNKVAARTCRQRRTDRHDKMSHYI
# [9] = Luminescence-based cell-based high throughput dose response assay to identify activators of the DAF-12 from the parasite S. stercoralis (ssDAF-12).; type: functional
# [10] = target: T2, Oxysterols receptor LXR-beta (Homo sapiens, UniProt P55055); test: LXR agonists, Gal4 luciferase reporter, dose response, counter-screen for ssDAF-12 agonist project, cell-based, luminescence, HEK293, S. stercoralis campaign (AID 720737); type: functional; conditions: read-out: IC50 (the source's name)
# T2 sequence (P55055 whole entry): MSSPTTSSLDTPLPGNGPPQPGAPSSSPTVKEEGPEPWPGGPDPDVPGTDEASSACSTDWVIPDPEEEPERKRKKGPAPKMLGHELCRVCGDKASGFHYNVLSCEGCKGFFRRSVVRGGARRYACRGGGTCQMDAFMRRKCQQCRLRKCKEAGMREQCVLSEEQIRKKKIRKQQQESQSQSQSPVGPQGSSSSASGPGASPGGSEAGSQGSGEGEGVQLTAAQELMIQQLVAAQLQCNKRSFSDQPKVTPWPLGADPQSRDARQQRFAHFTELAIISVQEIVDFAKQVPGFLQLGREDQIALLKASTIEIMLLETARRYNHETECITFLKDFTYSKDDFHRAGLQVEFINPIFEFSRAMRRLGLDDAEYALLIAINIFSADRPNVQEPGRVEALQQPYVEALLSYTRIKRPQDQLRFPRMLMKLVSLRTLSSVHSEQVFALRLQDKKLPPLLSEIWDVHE
# [11] = reduction of Shn3 3'UTR-driven luciferase in osteoblasts – cell-based, Clone20 osteoblasts, firefly luciferase, cherry-picked, dose response (AID 624132); type: functional;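 further: firefly luciferase luminescence from reporter carrying the Shn3 3'UTR in osteoblasts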
# [12] = loss of viability in HepG2 cells – cell-based, CellTiter-Glo, cherry-picked, cytotoxicity control for Shn3 inhibitor project, dose response (AID 624134); type: functional
# [13] = Shn3 3'UTR reporter signal decrease – cell-based, Clone20 osteoblasts, firefly luciferase, cherry-pick, set 2, Schnurri-3 inhibitor project, dose response (AID 720490); type: functional;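 further: actives lower the luminescence signal as inhibitors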
# [14] = EF1alpha-driven Renilla reporter with control 3'UTR suppression – Clone20-Shn3RL cells, dual-Glo, cherry-pick, set 2, counter-screen for Shn3 3'UTR targeting project, dose response (AID 720724); type: functional, cell-based; conditions: Dual-Go Shn3RL
# [15] = fungal growth arrest, C. neoformans – Alamar Blue, cherry-picks, dose response (AID 686998); type: functional, organism-based
# HEK293 = test: viability loss in HEK293T cells – cell-based, ATP luminescence, cherry-pick samples, cytotoxicity control, dose response (AID 687005); type: functional; conditions: Homo sapiens;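 further: cells exposed to compound for 48 hours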
# [16] = HEK293 Cytotoxicity Assay Measured in Cell-Based System Using Plate Reader - 7071-01_Inhibitor_Dose_CherryPick_Activity_Set2.; type: functional
# [17] = luciferase reporter signal suppression in cells – H4 neuroglioma cells, luminescence, dose response (AID 1990); type: functional, cell-based
# [18] = system: Streptococcus sp. 'group A'; test: Streptococcus pyogenes SK(-)GAS viability under kanamycin – luminescence, BacTiterGlo, confirmation, counter-screen for streptokinase expression inhibitor project, dose response (AID 1900); type: functional, organism-based
# [19] = Luminescence Cell-Based Dose Response HTS to Identify Inhibitors of 5'UTR Stem-Loop Driven Prion Protein mRNA Translation in H4 Neuroglioblastoma Cells. [Related pubchem assays: 1827 (Project Summary), 1813 (Primary HTS)]; type: functional
# [20] = alpha-synuclein stem-loop luciferase translation blockers – H4 neuroglioma cells, luminescence, confirmation (AID 1988); type: functional, cell-based
# Streptococcus = test: GAS UMAA2166 growth inhibition – luminescence, BacTiterGlo, counter-screen for streptokinase expression inhibitor project, dose response (AID 1915); type: functional, organism-based;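 further: potency for reduction of bacterial viability or growth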
# [21] = Luminescence Cell-Based Dose Retest to Confirm Inhibitors of Cancer Stem Cells. [Related pubchem assays (depositor defined):AID2717, AID2721]; type: functional; conditions: Homo sapiens
# Cytochrome P450 2C19 = Cytochrome P450 2C19 (Homo sapiens, UniProt P33261); test: Cytochrome panel assay with activity outcomes. Panel member name: p450-cyp2c19 Compounds with AC50 equal or less than 10 uM are considered active; type: functional; conditions: read-out: AC50
# Sequence of Cytochrome P450 2C19 (P33261 whole entry): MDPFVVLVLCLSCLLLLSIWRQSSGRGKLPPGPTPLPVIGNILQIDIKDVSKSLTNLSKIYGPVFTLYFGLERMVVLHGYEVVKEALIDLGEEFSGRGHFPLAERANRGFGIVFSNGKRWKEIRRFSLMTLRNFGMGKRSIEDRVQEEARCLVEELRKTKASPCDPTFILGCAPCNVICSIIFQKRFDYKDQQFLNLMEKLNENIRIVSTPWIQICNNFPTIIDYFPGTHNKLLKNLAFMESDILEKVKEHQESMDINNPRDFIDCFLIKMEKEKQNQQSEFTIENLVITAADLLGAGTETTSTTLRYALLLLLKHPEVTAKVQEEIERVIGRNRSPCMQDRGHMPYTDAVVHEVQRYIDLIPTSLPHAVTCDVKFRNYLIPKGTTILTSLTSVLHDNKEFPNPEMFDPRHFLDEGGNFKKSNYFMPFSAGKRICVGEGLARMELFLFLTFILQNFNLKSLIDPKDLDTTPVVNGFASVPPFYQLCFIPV
# [22] = IC50 of Artemis nuclease activity blockers – biochemical, fluorescence intensity, dose response (AID 720701); type: functional;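 further: Artemis endonuclease enzyme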
# Cytochrome P450 2D6 = Cytochrome P450 2D6 (Homo sapiens, UniProt P10635);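 further: CYP2D6 member of a cytochrome P450 panel assay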
# Sequence of Cytochrome P450 2D6 (P10635 whole entry): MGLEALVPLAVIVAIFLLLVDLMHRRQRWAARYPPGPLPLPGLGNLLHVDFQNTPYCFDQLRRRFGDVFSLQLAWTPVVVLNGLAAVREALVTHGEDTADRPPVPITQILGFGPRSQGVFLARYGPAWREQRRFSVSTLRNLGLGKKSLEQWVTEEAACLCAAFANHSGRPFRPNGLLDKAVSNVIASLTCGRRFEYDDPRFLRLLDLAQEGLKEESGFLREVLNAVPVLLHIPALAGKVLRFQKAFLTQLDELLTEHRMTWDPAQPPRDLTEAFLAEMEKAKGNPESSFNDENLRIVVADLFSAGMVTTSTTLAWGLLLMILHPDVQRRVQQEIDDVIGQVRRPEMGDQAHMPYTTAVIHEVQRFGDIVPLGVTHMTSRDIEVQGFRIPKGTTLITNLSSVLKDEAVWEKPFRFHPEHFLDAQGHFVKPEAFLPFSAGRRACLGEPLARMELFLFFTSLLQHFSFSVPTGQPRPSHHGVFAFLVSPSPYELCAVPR
# [23] = target: T3, Replicative DNA helicase DnaB (Mycobacterium tuberculosis, UniProt P9WMR3); test: DnaB intein splicing inhibitors, dose response, biochemical, cell-free fluorescence (AID 449749); type: functional
# T3 sequence (P9WMR3 whole entry): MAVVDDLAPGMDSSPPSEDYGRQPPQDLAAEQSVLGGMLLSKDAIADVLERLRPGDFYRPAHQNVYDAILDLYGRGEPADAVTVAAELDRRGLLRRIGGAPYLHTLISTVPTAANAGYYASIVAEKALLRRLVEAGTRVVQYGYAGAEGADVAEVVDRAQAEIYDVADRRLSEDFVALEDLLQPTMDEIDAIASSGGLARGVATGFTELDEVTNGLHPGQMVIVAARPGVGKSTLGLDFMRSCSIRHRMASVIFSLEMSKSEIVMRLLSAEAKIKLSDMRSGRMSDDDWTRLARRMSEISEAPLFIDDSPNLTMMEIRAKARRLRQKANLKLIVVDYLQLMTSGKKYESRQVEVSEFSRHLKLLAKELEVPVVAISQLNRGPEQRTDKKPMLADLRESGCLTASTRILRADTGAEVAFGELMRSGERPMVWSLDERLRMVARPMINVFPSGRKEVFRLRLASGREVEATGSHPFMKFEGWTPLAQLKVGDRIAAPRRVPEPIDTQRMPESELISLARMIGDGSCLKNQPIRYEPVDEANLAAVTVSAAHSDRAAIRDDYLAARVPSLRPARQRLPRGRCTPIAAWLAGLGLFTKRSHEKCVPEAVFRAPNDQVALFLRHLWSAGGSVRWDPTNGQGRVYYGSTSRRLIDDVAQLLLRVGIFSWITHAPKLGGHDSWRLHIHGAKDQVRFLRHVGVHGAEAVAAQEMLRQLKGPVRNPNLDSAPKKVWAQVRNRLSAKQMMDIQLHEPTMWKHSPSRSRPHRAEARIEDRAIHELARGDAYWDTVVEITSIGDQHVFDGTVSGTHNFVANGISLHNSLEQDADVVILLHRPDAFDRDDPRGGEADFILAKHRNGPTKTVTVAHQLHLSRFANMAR
# Protein RecA = target: T4, Protein RecA (Mycobacterium tuberculosis, UniProt P9WHJ3); test: Fluorescence Cell-Free Homogeneous Dose Retest to Identify Inhibitors of RecA-Intein Splicing Activity. [Related pubchem assays (depositor defined):AID2097, AID2223, AID489010, AID492950]; type: functional
# T4 sequence (P9WHJ3 whole entry): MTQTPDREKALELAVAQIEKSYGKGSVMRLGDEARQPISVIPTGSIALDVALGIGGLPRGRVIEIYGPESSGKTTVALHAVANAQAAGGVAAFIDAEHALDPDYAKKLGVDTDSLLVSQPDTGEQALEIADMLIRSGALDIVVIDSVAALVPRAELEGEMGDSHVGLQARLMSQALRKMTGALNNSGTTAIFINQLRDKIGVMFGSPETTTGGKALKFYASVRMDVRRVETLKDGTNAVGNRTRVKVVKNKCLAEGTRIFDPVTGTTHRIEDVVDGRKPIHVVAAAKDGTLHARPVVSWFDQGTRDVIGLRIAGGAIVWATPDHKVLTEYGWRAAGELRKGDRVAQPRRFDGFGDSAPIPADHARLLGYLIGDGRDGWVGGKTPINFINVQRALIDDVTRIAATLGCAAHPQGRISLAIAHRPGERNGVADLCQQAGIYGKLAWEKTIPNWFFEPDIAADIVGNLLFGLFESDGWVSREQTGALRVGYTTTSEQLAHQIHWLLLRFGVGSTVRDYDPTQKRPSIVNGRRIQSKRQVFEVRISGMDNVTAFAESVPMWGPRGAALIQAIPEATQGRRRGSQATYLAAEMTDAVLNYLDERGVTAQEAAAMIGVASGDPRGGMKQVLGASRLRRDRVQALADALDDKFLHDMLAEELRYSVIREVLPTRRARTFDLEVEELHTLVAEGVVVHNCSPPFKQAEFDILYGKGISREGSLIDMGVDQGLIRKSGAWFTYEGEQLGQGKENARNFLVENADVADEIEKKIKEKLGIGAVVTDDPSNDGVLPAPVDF
# [24] = toxicity toward immortalized ovarian surface epithelium – cell-based, plate reader, dry powder samples, cytotoxicity control for PAX8 inhibitor project, dose response (AID 743045); type: functional
# [25] = OVCAR-3 cell viability loss – plate reader, dry powder samples, PAX8 inhibitor project, dose response (AID 743044); type: functional, cell-based
# [26] = cervical cancer cell viability loss – HeLa, 24 h, plate reader, powder samples, set 3, cytotoxicity control, dose response (AID 651864); type: functional, cell-based
# [27] = A Cell Based Secondary Assay To Explore Cytotoxicity of Compounds that Sensitize Mycobacterium Tuberculosis to Beta-Lactam Antibiotics.; type: functional
# Kallikrein-7 = Kallikrein-7 (Homo sapiens, UniProt P49862); test: Fluorescence Intensity-based biochemical primary high throughput dose response assay to identify activators of kallikrein-7 (K7) zymogen.
# Sequence of Kallikrein-7 (P49862 whole entry): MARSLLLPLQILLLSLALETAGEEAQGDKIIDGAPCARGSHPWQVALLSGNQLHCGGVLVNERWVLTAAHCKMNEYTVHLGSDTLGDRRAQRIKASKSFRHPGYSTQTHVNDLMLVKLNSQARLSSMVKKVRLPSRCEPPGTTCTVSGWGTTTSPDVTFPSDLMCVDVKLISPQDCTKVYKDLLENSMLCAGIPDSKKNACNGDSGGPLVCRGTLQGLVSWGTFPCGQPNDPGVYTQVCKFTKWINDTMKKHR
smiles,measurement,setting,value
C[C@@H]1CN([C@H](C)CO)C(=O)c2cc(NC(=O)CCCCCC(=O)Nc3ccccc3N)ccc2O[C@@H]1CN(C)Cc1ccc(C(F)(F)F)cc1,AC50,Paired box protein Pax-8,6.43 µM (active)
same,AC50,[1],> 32 µM (inactive)
same,AC50,[2],32.9 µM (active)
same,AC50,[3],30 µM (active)
same,AC50,[4],39 µM (active)
same,AC50,[5],31.2 µM (active)
same,AC50,[6],> 70 µM (inactive)
same,AC50,[7],> 70 µM (inactive)
same,AC50,[8],10.1 µM (active)
Fc1ccc(-c2csc(Nc3ccccn3)n2)cc1,IC50,Protein skinhead-1,22.8 µM (active)
same,IC50,[9],> 67.6 µM (inactive)
same,EC50,[10],> 67.6 µM (inactive)
CN(CC(=O)Nc1ccccc1Cl)C(=O)c1cccc(S(=O)(=O)N2CCN(c3ccccc3)CC2)c1,AC50,[11],3.84 µM (active)
same,AC50,[12],> 70 µM (inactive)
same,AC50,[13],4.32 µM (active)
same,AC50,[14],47.9 µM (active)
COC(=O)C1=C(C)N(C)C(S)=NC1c1ccccc1 (centres undefined),AC50,[15],120 µM (active)
same,AC50,HEK293,> 92 µM (inactive)
same,AC50,[16],> 92 µM (inactive)
Nc1nn2c(O)cc(-c3ccccc3)nc2c1N=Nc1ccccc1,EC50,[17],> 60 µM (not active)
same,EC50,[18],1.67 µM (active)
same,EC50,[19],12.7 µM (active)
same,EC50,[20],10.5 µM (active)
same,EC50,Streptococcus,4.43 µM (active)
same,AC50,[21],1.62 µM (active)
same,AC50,Cytochrome P450 2C19,28.2 µM (inconclusive)
same,IC50,[22],19.9 µM (active)
same,AC50,Cytochrome P450 2D6,28.2 µM (inconclusive)
O=C1/C(=C/c2ccccc2F)SC(=S)N1CC(=O)N1CCCCC1c1cccnc1 (centres undefined),AC50,[23],17.9 µM (active)
same,EC50,Protein RecA,18.6 µM (active)
same,AC50,Paired box protein Pax-8,5.04 µM (active)
same,AC50,[1],> 100 µM (inactive)
same,AC50,[24],43.5 µM (active)
same,AC50,[25],26.3 µM (active)
same,AC50,[6],38.3 µM (active)
same,AC50,[8],44.9 µM (active)
c1ccc(Cn2nnc(NCc3ccc(N4CCCC4)cc3)n2)cc1,AC50,[26],> 160 µM (inactive)
COc1ccc(OC(=O)c2cccc([N+](=O)[O-])c2)c(C(=O)/C=C/c2cccs2)c1,CC50,[27],39.6 µM (active)
same,EC50,Kallikrein-7,46 µM (inactive)
